Results as given in patent publication US4393225A, “AI-77 Compounds and pharmaceutically acceptable salts thereof” (Asahi Kasei Kogyo Kabushiki Kaisha, priority 1979, dated 1983).
Like-named read-outs stand apart in the source and are kept apart here.

What was measured:
ulcer = assay: Anti-ulcer test (restraint and water immersion ulcer in rats, i.p.); format: in vivo, Male Wistar rats; conditions: Rattus norvegicus, ip, read-out: % Inhibition of Ulcer; for inhibition in vivo at 25 mg/kg: 25 mg/kg i.p.
In short: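 Compound given intraperitoneally in saline to 24 h-fasted male Wistar rats about 150 g, followed after one hour by 6 h restraint with water immersion at 21 °C. Gastric lesions graded 0, 0.5, 1, 2 or 3 on microscopic inspection and converted to percent ulcer inhibition.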

edema = assay: Anti-edema test (carrageenan hindfoot edema in rats, p.o.); format: in vivo, Male Wistar rats; conditions: Rattus norvegicus, po; 100 mg/kg p.o. (after 3 hours)
Experimental: Tables 13, 14 and 15 show the effect of these compounds to inhibit the occurrence of ulcer and edema. The anti-ulcer and anti-edema activity of the compounds was evaluated in efficacy tests described below. The first two symbols that appear in each of the compound names in Tables 13 and 15 represent the compounds synthesized in the methods (1) through (29); for example, IIIa-1 of a compound IIIa-1-1 represent the compound (IIIa-1).
Male Wistar rats weighing about 150 g on average were starved overnight prior to the test. They were than orally administered 100 mg/kg of the test compound. One hour later, the pad of a hindfoot of the animal was injected with 1 mg of carrageenan. The volume of the foot was measured both before the injection of carrageenan and three hours after the injection. The percent edema inhibition of the test compound was calculated from the ratio of the increase in the volume of the affected foot of the test animals to the increase in the volume of the affected foot of the controls.

[1] = Solubility of compounds A to G; format: physicochemical; conditions: in water and organic solvents
[2] = Stability (heat, alkali, aqueous solution) of compounds A to G; format: physicochemical

Structure (SMILES)	inhibition in vivo at 50 mg/kg (ulcer; 50 mg/kg i.p.) [%]	inhibition in vivo at 100 mg/kg (edema) [%]	also measured
CCCCCCCNC1CC(=O)OC1C(O)C(=O)NC(CC(C)C)C1Cc2cccc(O)c2C(=O)O1 (centres unmarked) [IIIa-18-8]	94	50	–
CCCCNC1CC(=O)OC1C(O)C(=O)NC(CC(C)C)C1Cc2cccc(O)c2C(=O)O1 (centres unmarked) [IIIa-18-3]	100	42	–
CCNC1CC(=O)OC1C(O)C(=O)NC(CC(C)C)C1Cc2cccc(O)c2C(=O)O1 (centres unmarked) [IIIa-18-1]	100	38	–
CCOc1cccc2c1C(=O)OC(C(CC(C)C)NC(=O)C(O)C1OC(=O)CC1NCCC(C)C)C2 (centres unmarked) [IIIa-22-2]	94	35	–
CCNC1CC(=O)OC1C(O)C(=O)NC(CC(C)C)C1Cc2cccc(OCC)c2C(=O)O1 (centres unmarked) [IIIa-22-1]	94	37	–
CCC(=O)NC1CC(=O)OC1C(O)C(=O)NC(CC(C)C)C1Cc2cccc(O)c2C(=O)O1 (centres unmarked) [D]	66	–	solubility [1]: soluble in lower alcohol, dimethylformamide, dimethyl sulfoxide, dioxane, chloroform, and ethyl acetate, and substantially insoluble in water, ether, hexane and benzene; stability to heat and/or alkali [2]: as labile to alkali as AI-77-B
CCCNC1CC(=O)OC1C(O)C(=O)NC(CC(C)C)C1Cc2cccc(O)c2C(=O)O1 (centres unmarked) [IIIa-18-2]	100	38	–
CCNC1CC(=O)OC1C(O)C(=O)NC(CC(C)C)C1Cc2cccc(OC)c2C(=O)O1 (centres unmarked) [IIIa-22-5]	94	37	–
CCCCCCCCCCCCNC1CC(=O)OC1C(O)C(=O)NC(CC(C)C)C1Cc2cccc(O)c2C(=O)O1 (centres unmarked) [IIIa-18-10]	94	43	–
CC(C)CC(NC(=O)C(O)C1C=CC(=O)O1)C1Cc2cccc(O)c2C(=O)O1 (centres unmarked) [F]	44	–	solubility [1]: freely soluble in ethyl acetate, chloroform, dimethylformamide and dimethyl sulfoxide, sparingly soluble in lower alcohols and dioxane, and substantially insoluble in water, hexane and benzene; stability to heat and/or alkali [2]: as labile to alkali as AI-77-B
CCCCCNC1CC(=O)OC1C(O)C(=O)NC(CC(C)C)C1Cc2cccc(O)c2C(=O)O1 (centres unmarked) [IIIa-18-6]	94	50	–
CCCCCCCCCCCCCCCCCCNC1CC(=O)OC1C(O)C(=O)NC(CC(C)C)C1Cc2cccc(O)c2C(=O)O1 (centres unmarked) [IIIa-18-11]	83	35	–
CCCCCCCCNC1CC(=O)OC1C(O)C(=O)NC(CC(C)C)C1Cc2cccc(O)c2C(=O)O1 (centres unmarked) [IIIa-18-9]	94	43	–
CCCCNC1CC(=O)OC1C(O)C(=O)NC(CC(C)C)C1Cc2cccc(OCC)c2C(=O)O1 (centres unmarked) [IIIa-22-75]	100	48	–
CCCCCCNC1CC(=O)OC1C(O)C(=O)NC(CC(C)C)C1Cc2cccc(O)c2C(=O)O1 (centres unmarked) [IIIa-18-7]	100	51	–
CC(C)CC(NC(=O)C(O)C(O)C(N)CC(=O)O)C(O)Cc1cccc(O)c1C(=O)O (centres unmarked) [G]	33	–	solubility [1]: freely soluble in water and slightly soluble in organic solvents; stability in aqueous solution ([2]; aqueous solution): relatively stable in aqueous solution
CC(C)CC(NC(=O)C(O)C(O)C(N)CC(=O)O)C1Cc2cccc(O)c2C(=O)O1 (centres unmarked) [B]	100	–	solubility [1]: freely soluble in water, methanol, dimethylformamide and dimethyl sulfoxide, sparingly soluble in other lower alcohols, dioxane and tetrahydrofuran, and substantially insoluble in ethyl acetate, chloroform, ether, hexane and benzene; stability to heat and/or alkali [2]: labile to alkali in which the hydrolysis of lactone proceeds gradually even at room temperature
CC(C)CCNC1CC(=O)OC1C(O)C(=O)NC(CC(C)C)C1Cc2cccc(O)c2C(=O)O1 (centres unmarked) [IIIa-18-5]	100	47	–
CC(C)CC(NC(=N)C(O)C(O)C(N)CC(=O)O)C1Cc2cccc(O)c2C(=O)O1 (centres unmarked) [A]	100	–	solubility [1]: freely soluble in water, methanol, dimethylformamide, and dimethyl sulfoxide, sparingly soluble in a lower alcohol of C2 to C3 and dioxane, and substantially insoluble in ethyl acetate, chloroform, ether, hexane and benzene; stability to heat and/or alkali [2]: very labile to heat and alkali

Structure (SMILES)	inhibition in vivo at 50 mg/kg (ulcer; 50 mg/kg i.p.) [%]	inhibition in vivo at 100 mg/kg (edema) [%]	also measured
CCCCOc1cccc2c1C(=O)OC(C(CC(C)C)NC(=O)C(O)C1OC(=O)CC1NCC)C2 (centres unmarked) [IIIa-22-3]	94	38	–
CNC1CC(=O)OC1C(O)C(=O)NC(CC(C)C)C1Cc2cccc(O)c2C(=O)O1 (centres unmarked) [IIIa-27-1]	100	38	–
CCCCNC1CC(=O)OC1C(O)C(=O)NC(CC(C)C)C1Cc2cccc(OC)c2C(=O)O1 (centres unmarked) [IIIa-22-74]	100	45	–
CC(=O)NC1CC(=O)OC1C(O)C(=O)NC(CC(C)C)C1Cc2cccc(O)c2C(=O)O1 (centres unmarked) [C]	66	–	solubility [1]: freely soluble in lower alcohols, dimethylformamide, dimethyl sulfoxide and dioxane, sparingly soluble in chloroform and ethyl acetate, and substanitally insoluble in water, ether, hexane and benzene; stability to heat and/or alkali [2]: as labile to alkali is AI-77-B
CC(C)CNC1CC(=O)OC1C(O)C(=O)NC(CC(C)C)C1Cc2cccc(O)c2C(=O)O1 (centres unmarked) [IIIa-18-4]	94	47	–
CCCCNC1CC(=O)OC1C(O)C(=O)NC(CC(C)C)C1Cc2cccc(OCCC(C)C)c2C(=O)O1 (centres unmarked) [IIIa-22-77]	94	–	–
CC(C)CC(NC(=O)C(O)C1OC(=O)CC1NC(=O)C1CCCO1)C1Cc2cccc(O)c2C(=O)O1 (centres unmarked) [IIIa-1-23]	66	–	–
CCNC1CC(=O)OC1C(OC(C)=O)C(=O)NC(CC(C)C)C1Cc2cccc(OC(C)=O)c2C(=O)O1 (centres unmarked) [IIIa-20-1]	–	–	inhibition in vivo at 50 mg/kg (ulcer): 56%
CCNC(=O)CC(N)C(O)C(OC)C(=O)NC(CC(C)C)C1Cc2cccc(OC(=O)CC)c2C(=O)O1 (centres unmarked) [VII-9-1]	–	–	inhibition in vivo at 25 mg/kg (ulcer): 66%
CCCC(=O)Oc1cccc2c1C(=O)OC(C(CC(C)C)NC(=O)C(OCC)C(O)C(N)CC(N)=O)C2 (centres unmarked) [VII-9-4]	–	–	inhibition in vivo at 25 mg/kg (ulcer): 78%
CCCCCCCCC=CCCCCCCCC(=O)OC(C(=O)NC(CC(C)C)C1Cc2cccc(OC(=O)CC)c2C(=O)O1)C1OC(=O)CC1N (centres unmarked) [IIIa-11-5]	44	–	–
CC(C)=CC(=O)NC1CC(=O)OC1C(O)C(=O)NC(CC(C)C)C1Cc2cccc(O)c2C(=O)O1 (centres unmarked) [IIIa-1-81]	66	–	–
CCCCN=C(NC(CC(C)C)C1Cc2cccc(OCC)c2C(=O)O1)C(O)C(O)C(N)CC(=O)O (centres unmarked) [Vb-5-2]	89	–	–
CC(C)CC(NC(=O)C(OC(=O)C(C)C)C1C=CC(=O)O1)C1Cc2cccc(O)c2C(=O)O1 (centres unmarked) [IVa-1-4]	44	–	–
CC(C)CC(NC(=O)C(O)C(O)C(N)CC(=O)NCCc1ccccc1)C1Cc2cccc(O)c2C(=O)O1 (centres unmarked) [VII-1-13]	–	–	inhibition in vivo at 25 mg/kg (ulcer): 89%
CC(C)CC(NC(=O)C(O)C(O)C(N)CC(=O)NC1CC1)C1Cc2cccc(O)c2C(=O)O1 (centres unmarked) [VII-1-11]	–	–	inhibition in vivo at 25 mg/kg (ulcer): 94%
CC(C)CC(NC(=O)C(O)C1OC(=O)CC1NC(=O)CCCC1CCCCC1)C1Cc2cccc(O)c2C(=O)O1 (centres unmarked) [IIIa-1-19]	66	–	–
Cc1ccc(C(C)C)cc2c(C(=O)NC3CC(=O)OC3C(O)C(=O)NC(CC(C)C)C3Cc4cccc(O)c4C(=O)O3)c(C)cc1-2 (centres unmarked) [IIIa-1-70]	56	–	–
CC(C)CC(NC(=O)C(O)C1OC(=O)CC1N)C1Cc2cccc(OC3CC3)c2C(=O)O1 (centres unmarked) [IIIa-13-10]	94	–	–
